Results on 4 compounds are retold here after publication PMC8202330, “Phosphorylation of the LIR Domain of SCOC Modulates ATG8 Binding Affinity and Specificity” (Journal of Molecular Biology, 2021).

Holding throughout (format): binding
Assay [1] deals with T1, GABARAP (Homo sapiens, UniProt O95166).
T1 construct: fused with a Gly-Ser linker to full-length GABARAP (GST-GABARAP (pAL)); GST (followed by 3C protease cleavage site) (N); made in house
The assay is described as follows: Bio-layer interferometry (BLI) affinity of SCOC LIR peptides for GABARAP. The settings on record: BLI, Tris pH 7.5, 25 °C, average ± standard error of fit. The protocol:
(§1) Bio-layer interferometry (BLI) is an optical analytical technique for measuring kinetics of interactions in real-time. The biosensor tip surface immobilized with a ligand is incubated with an analyte in solution, resulting in an increase in optical thickness at the biosensor tip and a wavelength shift, which is a direct measure of the change in thickness. Bio-layer interferometry analyses of ATG8s binding to immobilized biotinylated LIR peptides were performed using an Octet Red 96 (ForteBio). […] Ligands-loaded SA biosensors were then incubated with different concentrations of ATG8. All binding experiments were performed in solid-black 96-well plates containing 200 μl of solution (25 mM Tris pH 7.5, 150 mM NaCl, 0.5 mM TCEP, 0.1% Tween20, 1 mg/ml BSA) in each well at 25 °C with an agitation speed of 1000 rpm. Each measurement was repeated 2 to 3 times. Dissociation constants for LIR-ATG8 interactions were determined from plotting the increase in BLI response as a function of the protein concentration and fitting using non-linear regression of ForteBio 7.1 data analysis and GraphPad Prism 7 softwares.
(§2) The following peptides were synthesized using FMOC solid phase peptide chemistry by the Francis CRICK Institute peptide chemistry science technology platform: […]
A general note: Biolayer interferometry detects binding as a change in optical thickness at a sensor tip.

Assay [2] deals with T2, LC3A (Homo sapiens, UniProt Q9H492).
T2 construct: GST (followed by 3C protease cleavage site) (N); made in house
The assay is described as follows: Bio-layer interferometry (BLI) affinity of SCOC LIR peptides for LC3A. The settings on record: BLI, Tris pH 7.5, 25 °C, average ± standard error of fit, read-out: Kd LC3A. The protocol: as §1, §2

For assay [3], the target named is T3, LC3C (Homo sapiens, UniProt Q9BXW4).
T3 construct: GST (followed by 3C protease cleavage site) (N); made in house
The assay is described as follows: Bio-layer interferometry (BLI) affinity of SCOC LIR peptides for LC3C. The settings on record: BLI, Tris pH 7.5, 25 °C, average ± standard error of fit, read-out: Kd LC3C. The protocol:
as §1, §2

Assay [4] addresses T4, GABARAPL1 (Homo sapiens, UniProt Q9H0R8).
T4 construct: GST-GABARAPL1 full-length (pAL); GST (followed by 3C protease cleavage site) (N); made in house
The assay is described as follows: Bio-layer interferometry (BLI) affinity of SCOC LIR peptides for GABARAPL1. The settings on record: BLI, Tris pH 7.5, 25 °C, average ± standard error of fit, read-out: Kd GAB-L1. The protocol:
as §1, §2

Assay [5] has as its target T5, LC3B (Homo sapiens, UniProt Q9GZQ8).
T5 construct: GST (followed by 3C protease cleavage site) (N); made in house
As to the kind of experiment: Bio-layer interferometry (BLI) affinity of SCOC LIR peptides for LC3B. The settings on record: BLI, wild-type and phosphorylated SCOC LIR peptides; Tris pH 7.5, 25 °C; average ± standard error of fit, n = 2–3; Figure 4B; read-out: Kd LC3B. Here is the method:
as §1, §2

Assay [6] deals with T6, GABARAPL2 (Homo sapiens, UniProt P60520).
T6 construct: GST (followed by 3C protease cleavage site) (N); made in house
The assay is described as follows: Bio-layer interferometry (BLI) affinity of SCOC LIR peptides for GABARAPL2. The settings on record: BLI, wild-type and phosphorylated SCOC LIR peptides; Tris pH 7.5, 25 °C; average ± standard error of fit, n = 2–3; Figure 4B; read-out: Kd GAB-L2. Here is the method: as §1, §2

Setting [7] is: wild-type, truncated and phosphorylated SCOC LIR peptides, n = 2, Figure 6A.
Setting [8] is: wild-type, truncated and phosphorylated SCOC LIR peptides, n = 2, Figure 6A, read-out: Kd GAB.
Where [9] appears, read: wild-type and phosphorylated SCOC LIR peptides, n = 2–3, Figure 4B.

Like-named read-outs stand apart in the source and are kept apart here.

T4 sequence (Q9H0R8 whole entry): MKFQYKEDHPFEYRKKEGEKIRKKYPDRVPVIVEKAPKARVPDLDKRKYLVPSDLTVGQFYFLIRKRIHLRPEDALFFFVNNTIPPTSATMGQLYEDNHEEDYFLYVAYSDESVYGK
T1 sequence (O95166 whole entry, the tested form may be a part): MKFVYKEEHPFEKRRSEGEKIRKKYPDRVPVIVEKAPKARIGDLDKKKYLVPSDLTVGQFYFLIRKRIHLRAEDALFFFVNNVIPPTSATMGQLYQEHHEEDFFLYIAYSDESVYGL
T3 sequence (Q9BXW4 whole entry): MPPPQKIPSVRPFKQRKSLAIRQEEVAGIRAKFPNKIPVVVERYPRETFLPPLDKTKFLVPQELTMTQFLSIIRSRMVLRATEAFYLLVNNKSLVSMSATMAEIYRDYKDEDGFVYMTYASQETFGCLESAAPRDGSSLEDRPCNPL
T6 sequence (P60520 whole entry): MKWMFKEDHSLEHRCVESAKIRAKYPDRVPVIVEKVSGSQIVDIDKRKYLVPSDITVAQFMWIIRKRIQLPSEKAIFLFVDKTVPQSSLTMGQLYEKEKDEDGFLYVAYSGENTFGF

Broadly, the Kd is the free concentration of one partner at which half of the binding sites on the other are occupied at equilibrium, for simple one-to-one binding. For `CC[C@H](C)[C@H](NC(=O)[C@H](CC(=O)O)NC(=O)[C@H](CC(=O)O)NC(=O)[C@H](C)NC(=O)[C@H](CC(C)C)NC(=O)[C@H](CO)NC(=O)[C@@H](NC(=O)[C@H](CC(N)=O)NC(=O)[C@@H](NC(=O)[C@H](Cc1ccccc1)NC(=O)[C@@H](NC(=O)[C@H](CO)NC(=O)[C@H](CC(=O)O)NC(=O)[C@H](CCC(=O)O)NC(=O)[C@H](CCC(=O)O)NC(=O)[C@H](CCC(=O)O)NC(=O)[C@H](CCC(=O)O)NC(=O)[C@@H](N)CCCCN)[C@@H](C)O)[C@@H](C)O)[C@@H](C)CC)C(=O)N[C@@H](CC(=O)O)C(=O)N[C@@H](Cc1c[nH]cn1)C(N)=O` [SCOC WT], the Kd in assay [1] (biotinylated LIR peptide on streptavidin biosensor, n = 2, Figure 1E, Suppl. Figure 2A, read-out: Kd GABARAP) is 3.6 µM.

With `CC[C@H](C)[C@H](NC(=O)[C@H](CC(N)=O)NC(=O)[C@@H](NC(=O)[C@H](Cc1ccccc1)NC(=O)[C@@H](NC(=O)[C@H](CO)NC(=O)[C@H](CC(=O)O)NC(=O)[C@H](CCC(=O)O)NC(=O)[C@H](CCC(=O)O)NC(=O)[C@H](CCC(=O)O)NC(=O)[C@H](CCC(=O)O)NC(=O)[C@@H](N)CCCCN)[C@@H](C)O)[C@@H](C)O)C(=O)N[C@@H](COP(=O)(O)O)C(=O)N[C@@H](CC(C)C)C(=O)N[C@@H](C)C(N)=O` [SCOC aa 6-20/pS18], the Kd came out at 33.3 ± 4.8 µM in assay [2] (setting [7]), 5 ± 0.5 µM in assay [3] (setting [7]), 7.5 ± 0.8 µM in assay [1] (setting [8]) and 3.8 ± 0.3 µM in assay [4] (setting [7]).

With `CC[C@H](C)[C@H](NC(=O)[C@H](CC(N)=O)NC(=O)[C@@H](NC(=O)[C@H](Cc1ccccc1)NC(=O)[C@@H](NC(=O)[C@H](CO)NC(=O)[C@H](CC(=O)O)NC(=O)[C@H](CCC(=O)O)NC(=O)[C@H](CCC(=O)O)NC(=O)[C@H](CCC(=O)O)NC(=O)[C@H](CCC(=O)O)NC(=O)[C@@H](N)CCCCN)[C@@H](C)O)[C@@H](C)O)C(=O)N[C@@H](CO)C(=O)N[C@@H](CC(C)C)C(=O)N[C@@H](C)C(N)=O` [SCOC aa 6-20], the Kd came out at 209 ± 25 µM in assay [2] (setting [7]), 21.3 ± 2.4 µM in assay [3] (setting [7]), 8.5 ± 0.7 µM in assay [1] (setting [8]) and 6.8 ± 0.6 µM in assay [4] (setting [7]).

Turning to `CC[C@H](C)[C@H](NC(=O)[C@H](CC(=O)O)NC(=O)[C@H](CC(=O)O)NC(=O)[C@H](C)NC(=O)[C@H](CC(C)C)NC(=O)[C@H](COP(=O)(O)O)NC(=O)[C@@H](NC(=O)[C@H](CC(N)=O)NC(=O)[C@@H](NC(=O)[C@H](Cc1ccccc1)NC(=O)[C@@H](NC(=O)[C@H](COP(=O)(O)O)NC(=O)[C@H](CC(=O)O)NC(=O)[C@H](CCC(=O)O)NC(=O)[C@H](CCC(=O)O)NC(=O)[C@H](CCC(=O)O)NC(=O)[C@H](CCC(=O)O)NC(=O)[C@@H](N)CCCCN)[C@@H](C)O)[C@@H](C)O)[C@@H](C)CC)C(=O)N[C@@H](CC(=O)O)C(=O)N[C@@H](Cc1c[nH]cn1)C(N)=O` [pS12, pS18], the Kd in assay [2] (setting [9]) was 1.6 ± 0.2 µM; in assay [5], 7.8 ± 0.9 µM; in assay [3] (setting [9]), 0.4 ± 0.04 µM; in assay [1] (wild-type and phosphorylated SCOC LIR peptides, n = 2–3, Figure 4B, read-out: Kd GAB), 1 ± 0.1 µM; in assay [4] (setting [9]), 0.4 ± 0.03 µM; in assay [6] it was 10.4 ± 0.5 µM.
